{"source": "paper PMC5581131", "about": "“The novel sphingosine-1-phosphate receptors antagonist AD2900 affects lymphocyte activation and inhibits T-cell entry into the lymph nodes” (Oncotarget, 2017)", "assay_type_in_all_cases": "cell-based", "key": {"S1P3 [1]": {"target": "T1, S1P3 (Homo sapiens, UniProt Q99500)", "T1 construct": "expressed in transfected cells; host or cells: S1P3 NFAT-bla CHO cells", "T1 sequence (Q99500 whole entry)": "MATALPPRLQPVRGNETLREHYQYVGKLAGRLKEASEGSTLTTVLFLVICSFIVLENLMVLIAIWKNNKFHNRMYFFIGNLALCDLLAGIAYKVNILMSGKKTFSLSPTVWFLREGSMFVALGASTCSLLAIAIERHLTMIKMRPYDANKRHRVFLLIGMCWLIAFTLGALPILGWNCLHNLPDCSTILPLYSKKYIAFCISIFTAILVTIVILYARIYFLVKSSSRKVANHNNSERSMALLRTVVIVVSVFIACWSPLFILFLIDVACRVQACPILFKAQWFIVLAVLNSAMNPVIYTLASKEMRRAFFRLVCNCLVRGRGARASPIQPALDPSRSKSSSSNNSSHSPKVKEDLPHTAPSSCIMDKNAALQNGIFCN", "assay": "S1P3 agonist test, S1P3 NFAT-bla CHO cells", "conditions": "S1P3 NFAT-BLA CHO cell line", "experimental": "(§1) Since AD2900 is a sphingolipid analogue with properties that resemble those of S1P, we intended to examine its ability to interact with the S1P receptors. To delineate whether AD2900 can function as an agonistic or antagonistic compound to any of the S1P receptors, we used a high-throughput screening cell-based assay, employing cell lines stably transfected with human S1P receptors 1, 2, 3, 4, or 5 [37]. In this experiment, a compound with an IC50 or EC50 value ≤10 μM for a certain S1P receptor is considered active as an antagonist or an agonist, respectively. The results illustrate that AD2900 acts as an antagonist to all S1P receptors (Table 1, Supplementary Figure 3). […] No agonist activation was evident.\n(§2) The S1P1 agonist test and S1P2, S1P3, S1P4, and S1P5 agonist and antagonist tests were conducted as previously described using S1P1 CRE-bla CHO cells, S1P2 CRE-bla CHO cells, S1P3 NFAT-bla CHO cells, Tango™ S1P4 (EDG6)-bla U-2 OS cells, and Tango™ S1P5 ([…])-bla U-2 OS cells. The S1P1 antagonist assay was carried out according to the manufacturer’s instructions using a Tango™ S1P1 (EDG1)-bla U-2 OS Cell-Based Assay (Invitrogen, NY, USA)."}, "human PBMCs": {"test_system": "human PBMCs", "assay": "Human allogeneic mixed lymphocyte reaction (MLR), [3H] thymidine incorporation, 1-day pretreatment", "experimental": "To select an analogue with potential anti-inflammatory activity, the effects of six of our unique synthetic sphingolipid analogues (all chemical structures can be found in Supplementary Figure 1A) on human immune cell activation were examined. Human PBMCs were cultured with the compounds for 1 day at different concentrations. The cells were then activated by PBMCs from a different donor in a mixed lymphocyte reaction (MLR) experiment. […] The amine derivative, AD2900, is substituted with amino diols. Structurally, AD2900 has a hydroxymethyl group on carbon 2 and no phenyl substitution. These characteristics cause AD2900 to be more hydrophilic than other analogues. In addition, previous studies have shown that AD2900 has a higher lethal dose 50% (LD50), which is above 100 mg/kg, and it is stable at room temperature for at least 2 years (unpublished data). Based on these characteristics, AD2900 was selected for further investigation. […]\nHuman PBLs were collected from human whole blood collected from healthy donors. […] For the thymidine incorporation assay, after 4 days of co-culture, cells were pulsed with ^3H-thymidine at 1 μCi (0.037MBq) per well (PerkinElmer, MA, USA) for 16 additional hours and then harvested onto glass-fiber filters. ^3H-thymidine incorporation was measured using Top Count. […]"}, "murine splenocytes": {"test_system": "murine splenocytes", "assay": "Mouse allogeneic MLR with murine splenocytes", "conditions": "1-day pretreatment, 3-day mice MLR; mean of up to, highest concentration", "experimental": "Supplementary Figure 4: AD2900 inhibits mice splenocytes proliferation in allogeneic activation in vitro. In vivo- the […]\n(A) The levels of proliferative response of mouse splenocytes after one day pretreatment with different concentrations of AD2900 were tested by mouse allogeneic mixed lymphocyte reaction (MLR) assay followed by a [3H] thymidine incorporation analysis. [3H] thymidine was incorporated for at least 16 hours at the 3rd day of the experiment. Significance is compared to untreated mice splenocytes. (B) C57BL/6 mice were orally administered AD2900 or FTY720. Leucocytes from blood, spleen and pLNs were collected and stained with TCR-β, CD62L and CD44 florescent antibodies and then analyzed by FACS analysis. The percent of CD62L+CD44+ (Tcm) like cells out of the total T cell population (TCR-β+) in blood, spleen and pLNs are shown. All the significances are compared to untreated healthy mice. Graphs summarize results of at least three independent experiments. Results of Student’s t test :*( P < 0.05, two-tailed test), ** (P < 0.01, two-tailed test), *** (P < 0.001, two-tailed test), **** (P < 0.0001, two-tailed test).\n(also on this page, place not known: www.impactjournals.com/oncotarget/ Oncotarget, Materials 2017 Supplementary) […]"}, "S1P3 [2]": {"target": "T1, S1P3", "assay": "S1P3 antagonist test, S1P3 NFAT-bla CHO cells", "conditions": "S1P3 NFAT-BLA CHO cell line", "experimental": "as §1, §2"}}, "note": "pEC50, pIC50: −log10 of the molar value."}
{"smiles": "CCCCCCCCCCCCCCCCNC(CO)(CO)CO", "note": "[AD2900]", "values": [{"measurement": "pEC50", "setting": "S1P3 [1]", "result": "< 4.30"}, {"measurement": "inhibitory effect on lymphocyte activation compared to FTY720 and SEW2817", "setting": "human PBMCs; 1-day pretreatment prior to MLR, concentrations of 6–20 μM", "result": "compromised effect in comparison to FTY720 but a higher inhibitory effect than that with SEW2817"}, {"measurement": "inhibition of PBMC proliferation", "setting": "human PBMCs; 1-day pretreatment, MLR, mean of up to, at the highest concentration", "result": "76% ± 4%"}, {"measurement": "inhibition of mice T-cell proliferation", "setting": "murine splenocytes", "result": "73% ± 3%"}, {"measurement": "pIC50", "setting": "S1P3 [2]", "result": 5.21}]}
